Data as given in the supplement of paper PMC10307832.

Key:
Test in all cases: relative viability (nuclei count vs DMSO), 5 days (fraction); higher = more cells survive
[1] = compound: COc1cc(-c2nn([C@H]3CC[C@H](N4CCN(C(C)=O)CC4)CC3)c3ncnc(N)c23)ccc1NC(=O)c1cc2ccccc2n1C + N=C(N)NC(=N)NCCc1ccccc1 [Phenformin] (partner 250 µM)
Method in brief: (§1)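 Values are medians from duplicate plates. Each reflects relative viability, defined as the nuclei count of treated wells over that of vehicle wells. Lung cancer cell lines in 1536-well plates were pin-tool dosed one day after seeding with one drug alone or with a fixed anchor-drug dose plus five library-drug doses (not always all listed) in √10 steps, then fixed, stained and imaged at 4× after 5 days.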

[2] = compound: COc1cc(-c2nn([C@H]3CC[C@H](N4CCN(C(C)=O)CC4)CC3)c3ncnc(N)c23)ccc1NC(=O)c1cc2ccccc2n1C + CS(=O)(=O)CCNCc1ccc(-c2ccc3ncnc(Nc4ccc(OCc5cccc(F)c5)c(Cl)c4)c3c2)o1 [Lapatinib] (partner 2 µM)
Method in brief: as §1

Midostaurin + Lapatinib = compound: CO[C@@H]1[C@H](N(C)C(=O)c2ccccc2)C[C@H]2O[C@]1(C)n1c3ccccc3c3c4c(c5c6ccccc6n2c5c31)C(=O)NC4 [Midostaurin] + CS(=O)(=O)CCNCc1ccc(-c2ccc3ncnc(Nc4ccc(OCc5cccc(F)c5)c(Cl)c4)c3c2)o1 [Lapatinib] (partner 2 µM)
Method in brief: as §1

Midostaurin + Pictilisib = compound: CO[C@@H]1[C@H](N(C)C(=O)c2ccccc2)C[C@H]2O[C@]1(C)n1c3ccccc3c3c4c(c5c6ccccc6n2c5c31)C(=O)NC4 [Midostaurin] + CS(=O)(=O)N1CCN(Cc2cc3nc(-c4cccc5[nH]ncc45)nc(N4CCOCC4)c3s2)CC1 [Pictilisib] (partner 1 µM)
Method in brief: as §1

[3] = compound: COc1cc(-c2nn([C@H]3CC[C@H](N4CCN(C(C)=O)CC4)CC3)c3ncnc(N)c23)ccc1NC(=O)c1cc2ccccc2n1C + Cc1nc(NC(=O)N2CCC[C@H]2C(N)=O)sc1-c1ccnc(C(C)(C)C(F)(F)F)c1 [Alpelisib] (partner 2 µM)
Method in brief: as §1

Cell Line	relative viability ([1]; first compound 0.0128 µM)	relative viability ([1]; first compound 0.04048 µM)	relative viability ([1]; first compound 0.128 µM)	relative viability ([1]; first compound 1.28 µM)	relative viability ([2]; first compound 0.0128 µM)	relative viability ([2]; first compound 0.04048 µM)	relative viability ([2]; first compound 0.128 µM)	relative viability ([2]; first compound 1.28 µM)	relative viability (Midostaurin + Lapatinib; first compound 0.01 µM)	relative viability (Midostaurin + Lapatinib; first compound 0.03162 µM)	relative viability (Midostaurin + Lapatinib; first compound 0.1 µM)	relative viability (Midostaurin + Lapatinib; first compound 0.3162 µM)	relative viability (Midostaurin + Pictilisib; first compound 0.01 µM)	relative viability (Midostaurin + Pictilisib; first compound 0.03162 µM)	relative viability (Midostaurin + Pictilisib; first compound 0.1 µM)	relative viability (Midostaurin + Pictilisib; first compound 0.3162 µM)	relative viability ([3]; first compound 0.0128 µM)	relative viability ([3]; first compound 0.04048 µM)	relative viability ([3]; first compound 0.128 µM)	relative viability ([3]; first compound 1.28 µM)
HCC-44	0.367	0.187	0.305	0.22	1.08	1.21	0.937	1.23	1.01	0.985	1.04	1.13	0.571	0.576	0.692	0.327	0.923	0.763	0.789	0.511
HCC-827	0.384	0.396	0.406	0.39	0.192	0.172	0.182	0.204	0.198	0.225	0.204	0.225	1.03	1	1.16	1.25	1.11	0.961	0.942	0.726
NCI-H1623	0.622	0.508	0.603	0.53																
NCI-H2347	0.51		0.482	0.346	1.1	0.874	0.927	1.05	0.883	0.863	0.956	1.11	0.48	0.493	0.648	0.634	1.05	0.948	0.924	1.03
PC-14	0.646	0.599	0.581	0.751	0.308	0.371	0.297	0.208	0.345	0.289	0.302	0.266	0.674	0.61	0.633	0.75	1.01	0.951	0.902	0.852
NCI-H1651	0.352	0.329	0.3	0.31	0.961	1.03	0.621	0.74	0.74	0.931	0.787	1.05	0.543	0.575	0.529	0.512	0.965	0.941	0.911	0.862
HARA	0.426	0.533	0.41	0.332	0.888	0.858	0.563	0.813	0.641	0.665	0.522	1.01	0.469	0.416	0.295	0.333	0.855	0.886	0.735	0.447
NCI-H1650	0.41	0.57	0.435	0.479	0.782	0.846	0.69	0.6	0.757	0.791	0.878	0.581	0.616	0.592	0.657	0.569				
NCI-H1395	0.419	0.461	0.431	0.395	0.939	1.09	0.881	0.782	1.04	1.12	0.912	1.3	0.592	0.588	0.588	0.615	0.947	1.47	0.995	0.953
LU99A	0.938	0.59	0.85	0.882	1.11	1.1	1.12	0.904	0.983	1.04	1.02	0.993	0.299	0.316	0.302	0.245	0.464	0.565	0.534	0.521
NCI-H1355	0.476	0.401	0.459	0.41	1.11	0.928	0.952	0.897	0.979	0.959	1.08	1.09	0.415	0.381	0.401	0.526	0.981	0.795	0.828	0.737
HCC-78	0.734	0.789	0.601	0.37	0.953	0.85	0.673	0.585	0.805	0.697	0.721	0.316	0.216	0.216	0.229	0.19	0.376	0.361	0.322	0.281
NCI-H1563	0.608	0.635	0.662	0.617	1.01	0.961	0.822	0.681	0.929	0.97	0.77	0.924	0.605	0.722	0.599	0.692	0.876	0.918	0.998	0.865
HCC-15	0.525	0.447	0.476	0.42	1.08	0.726	0.87	0.896	0.85	0.776	0.692	0.921	0.785	0.705	0.762	0.823	0.963	0.886	0.864	0.662
EKVX	0.234	0.245	0.211	0.199	0.217	0.203	0.189	0.154	0.214	0.127	0.242	0.212	0.487	0.367	0.473	0.483	0.827	1.09	0.75	0.509
NCI-H2087	0.505		0.529	0.462	1.05	0.659	0.93	1.17	1.09	0.889	1.02	1.4	0.851	0.769	0.979	1.18	1.29	0.781	1.27	1.2
LK-2	0.423	0.38	0.408	0.485	1.09	0.981	0.83	0.777	0.916	0.901	0.921	0.822	0.592	0.555	0.586	0.599	0.91	1.26	1.07	0.789
NCI-H1437	0.429	0.303	0.331	0.287	0.901	0.91	0.77	0.764	0.808	0.848	0.773	0.882	0.58	0.567	0.567	0.599	0.968	0.992	0.897	0.757

Cell Line	relative viability ([1]; first compound 0.0128 µM)	relative viability ([1]; first compound 0.04048 µM)	relative viability ([1]; first compound 0.128 µM)	relative viability ([1]; first compound 1.28 µM)	relative viability ([2]; first compound 0.0128 µM)	relative viability ([2]; first compound 0.04048 µM)	relative viability ([2]; first compound 0.128 µM)	relative viability ([2]; first compound 1.28 µM)	relative viability (Midostaurin + Lapatinib; first compound 0.01 µM)	relative viability (Midostaurin + Lapatinib; first compound 0.03162 µM)	relative viability (Midostaurin + Lapatinib; first compound 0.1 µM)	relative viability (Midostaurin + Lapatinib; first compound 0.3162 µM)	relative viability (Midostaurin + Pictilisib; first compound 0.01 µM)	relative viability (Midostaurin + Pictilisib; first compound 0.03162 µM)	relative viability (Midostaurin + Pictilisib; first compound 0.1 µM)	relative viability (Midostaurin + Pictilisib; first compound 0.3162 µM)	relative viability ([3]; first compound 0.0128 µM)	relative viability ([3]; first compound 0.04048 µM)	relative viability ([3]; first compound 0.128 µM)	relative viability ([3]; first compound 1.28 µM)
COR-L23	0.424	0.559	0.413	0.434	0.933	1.2	0.789	0.992	0.922	1.1	0.835	0.855	0.743	0.734	0.752	0.603	0.749	0.97	0.682	0.682
ABC-1	0.231	0.245	0.225	0.243	1.26	1.17	1.04	0.891	1.05	1.29	1	1.17	0.795	0.639	0.654	0.775	0.972	1.08	0.78	1
NCI-H522	0.598	0.625	0.641	0.541																
NCI-H838	0.694	0.53	0.509	0.388	1.06	1.02	0.913	0.629	0.955	0.92	0.897	0.452	0.565	0.48	0.302	0.276	1.03	1.01	1.01	0.664
SW 900	0.639	0.66	0.494	0.448																
A549	0.178	0.203	0.151	0.185	0.961	1.02	0.953	1.06	0.954	0.854	1	0.212	0.549	0.446	0.483	0.224	0.739	0.774	0.862	0.57
A-427	0.335		0.268	0.254	1.18	0.944	0.852	0.907	0.95	0.993	0.835	1.1	0.75	0.614	0.702	0.578	1.15	0.959	1.01	0.908
NCI-H1792	0.263	0.288	0.369	0.309	0.83	0.773	0.883	0.755	0.932	0.875	0.862	0.91	0.323	0.25	0.257	0.244	0.78	0.593	0.719	0.55
LCLC-97TM1	0.501	0.377	0.461	0.416	0.922	0.553	0.9	1.08	0.73		0.846	1.12	0.199		0.163	0.313	0.252	0.203	0.226	0.319
NCI-H1703					1.09	0.988	0.842	0.352	1.04	1.08	1.1	0.317	0.276	0.226	0.245	0.197	0.372	0.243	0.228	0.157
LCLC-103H	0.397	0.327	0.342	0.358									0.72	0.541	0.6	0.648	1.02	0.938	0.88	0.775
ChaGo-K-1	0.472	0.491	0.417	0.431									0.688	1.24	0.712	1.1				
Calu-6					1.08	1.01	0.91	0.875	0.94	1.02	1.02	0.986	0.876	0.837	0.937	0.771	0.927	0.936	0.943	0.829
EBC-1					0.203	0.23	0.205	0.19	0.208	0.212	0.217	0.222	0.504	0.272	0.294	0.196	0.823	0.785	0.723	0.732
NCI-H1299					0.997	1.11	0.984	1.04	0.959	0.93	0.871	0.883	0.838	0.73	0.527	0.273	1.1	1.11	1.06	1.08
NCI-H2342	0.529	0.584	0.637	0.628																
IA-LM					0.83	1.16	0.79	1.15	0.886	0.579	0.984	0.551	0.405		0.497	0.449	0.838	0.803	0.783	0.84
NCI-H441	0.855	0.757	0.849	0.812									0.496	0.434	0.488	0.512	0.762	0.985	0.556	0.576
